Test results reported in US20100022483A1, “Substituted Tetracycline Compounds” (Paratek Pharmaceuticals, Inc., priority 2008, published 2010).
Converted amounts (≈) assume the structure as drawn. Read-outs that look alike come from different tables or passages of the source.

Columns and labels:
[1] = tested on: gram positive bacteria; assay: In vitro anti-bacterial activity assay (broth dilution MIC), gram positive bacteria; format: cell-based, S. aureus; conditions: 18 h
Outline: (§1)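 Broth dilution MIC following CLSI M7-A2: compounds serially diluted, log-phase test strains added to final ~5×10^5 CFU/ml, incubated ~18 hours at 35° C in ambient air. Plates read on microplate reader or visually; MIC is lowest concentration inhibiting growth.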

[2] = Mammalian cytotoxicity assay (resazurin), COS-1 cells; format: cell-based; conditions: African green monkey, read-out: Cytotox. COS-1
Outline: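 Resazurin read-out (0.042 mg/ml, 2 h at 37° C. then 30 min dark, room temperature; fluorescence 535/590 nm) follows 24-hour compound exposure of overnight-seeded cells, serially diluted. IC50 is the concentration giving 50% growth inhibition.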

[3] = in vitro; format: cell-based; conditions: Chinese hamster, Cytotox. CHO-K1
[4] = tested on: gram negative bacteria; assay: In vitro anti-bacterial activity assay (broth dilution MIC), gram negative bacteria; format: cell-based, E. coli
Outline: as §1

[5] = tested on: 3T3 fibroblast cells; assay: In vitro phototoxicity assay (neutral red; UV light-treated vs dark control plates); format: cell-based; conditions: for Photo Toxicity UV Tox50: UV light 50 minutes; for Photo Toxicity Dark Tox50: dark control plate
Outline: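 Neutral red viability readout (A535 after EtOH/acetic acid extraction) compares paired plates: one exposed 50 min to UV at 1.6–1.8 mW/cm^2, one held in darkness, both dosed with compound in HBSS and recovered overnight. 3T3 fibroblast cells used; phototoxicity taken as the difference.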

[6] = Staphylococcus aureus, S. aureus MRSA5, read-out: Median MIC's G+ S. aureus MRSA5
[7] = Staphylococcus aureus, S. aureus RN450, read-out: Median MIC's G+ S. aureus RN450
[8] = Streptococcus pneumoniae, S. pneumoniae 157E-Strep, read-out: Median MIC's G+ S. pneumoniae 157E-Strep
[9] = Escherichia coli, 18 h, E. coli D1 209, read-out: Median MIC's G− E. coli D1 209
[10] = Escherichia coli, 18 h, E. coli MG 1655, read-out: Median MIC's G− E. coli MG 1655
[11] = Escherichia coli, ATCC25922, 18 h, E. coli ATCC 25922, read-out: Median MIC's G− E. coli ATCC 25922
[12] = Pseudomonas aeruginosa, 18 h, P. aeruginosa K201 PAO6609, read-out: Median MIC's G− P. aeruginosa K201 PAO6609

Structure (SMILES)	MIC [1, 6]	MIC [1, 7]	MIC [1, 8]	IC50 at 24 h [2]	IC50 at 24 h [3]	MIC [4, 9]	MIC [4, 10]	MIC [4, 11]	MIC [4, 12]	Photo Toxicity UV Tox50 [5]	Photo Toxicity Dark Tox50 [5]
CN(C)CCNCc1ccc(-c2ccc(O)c3c2C[C@H]2C[C@H]4[C@H](N(C)C)C(O)=C(C(N)=O)C(=O)[C@@]4(O)C(O)=C2C3=O)o1 [CY]	64 µg/mL (≈ 110 µM)	0.25 µg/mL (≈ 0.431 µM)	0.06 µg/mL (≈ 0.103 µM)	> 142 µM	> 142 µM	64 µg/mL (≈ 110 µM)	2 µg/mL (≈ 3.44 µM)	4 µg/mL (≈ 6.89 µM)	64 µg/mL (≈ 110 µM)	>142.02 µM	>142.02 µM
CN(C)CCN(C)Cc1ccc(-c2ccc(O)c3c2C[C@H]2C[C@H]4[C@H](N(C)C)C(O)=C(C(N)=O)C(=O)[C@@]4(O)C(O)=C2C3=O)o1 [CZ]	16 µg/mL (≈ 26.9 µM)	0.06 µg/mL (≈ 0.101 µM)	0.06 µg/mL (≈ 0.101 µM)	> 13.8 µM	> 13.8 µM	16 µg/mL (≈ 26.9 µM)	4 µg/mL (≈ 6.73 µM)	4 µg/mL (≈ 6.73 µM)	64 µg/mL (≈ 108 µM)	>137.77 µM	>137.77 µM
CN1CCN(C(=O)c2cccc(-c3ccc(O)c4c3C[C@H]3C[C@H]5[C@H](N(C)C)C(O)=C(C(N)=O)C(=O)[C@@]5(O)C(O)=C3C4=O)c2)CC1 [C]	64 µg/mL (≈ 104 µM)	0.25 µg/mL (≈ 0.405 µM)	0.06 µg/mL (≈ 0.0973 µM)	> 138 µM	> 138 µM	64 µg/mL (≈ 104 µM)	32 µg/mL (≈ 51.9 µM)	8 µg/mL (≈ 13 µM)	64 µg/mL (≈ 104 µM)	>137.76 µM	>137.76 µM
CN(C)[C@@H]1C(O)=C(C(N)=O)C(=O)[C@@]2(O)C(O)=C3C(=O)c4c(O)ccc(-c5cccc(C(=O)NCC[N+](C)(C)C)c5)c4C[C@H]3C[C@@H]12 [DA]	64 µg/mL	4 µg/mL	32 µg/mL	> 1.23 µM	> 1.23 µM	64 µg/mL	64 µg/mL	64 µg/mL	64 µg/mL	>123.61 µM	>123.61 µM
CN(C)[C@@H]1C(O)=C(C(N)=O)C(=O)[C@@]2(O)C(O)=C3C(=O)c4c(O)ccc(-c5cccc(C(=O)NCCN6CCOCC6)c5)c4CC3CC12 (stereo partly shown) [DC]	4 µg/mL (≈ 6.19 µM)	0.125 µg/mL (≈ 0.193 µM)	0.125 µg/mL (≈ 0.193 µM)	> 13.6 µM	> 13.6 µM	64 µg/mL (≈ 99 µM)	8 µg/mL (≈ 12.4 µM)	16 µg/mL (≈ 24.7 µM)	64 µg/mL (≈ 99 µM)	>136.18 µM	>136.18 µM
COCCCNC(=O)c1cccc(-c2ccc(O)c3c2CC2CC4[C@H](N(C)C)C(O)=C(C(N)=O)C(=O)[C@@]4(O)C(O)=C2C3=O)c1 (stereo partly shown) [DD]	2 µg/mL (≈ 3.3 µM)	0.0625 µg/mL (≈ 0.103 µM)	0.06 µg/mL (≈ 0.0991 µM)	> 15.3 µM	> 15.3 µM	64 µg/mL (≈ 106 µM)	64 µg/mL (≈ 106 µM)	64 µg/mL (≈ 106 µM)	64 µg/mL (≈ 106 µM)	>152.62 µM	>152.62 µM
COCCCOCCN(C)Cc1cccc(-c2ccc(O)c3c2C[C@H]2C[C@H]4[C@H](N(C)C)C(O)=C(C(N)=O)C(=O)[C@@]4(O)C(O)=C2C3=O)c1 [DE]	2 µg/mL (≈ 3.08 µM)	0.06 µg/mL (≈ 0.0923 µM)	0.06 µg/mL (≈ 0.0923 µM)	> 20 µM	> 20 µM	2 µg/mL (≈ 3.08 µM)	8 µg/mL (≈ 12.3 µM)	2 µg/mL (≈ 3.08 µM)	64 µg/mL (≈ 98.5 µM)	>200 µM	>200 µM
COCCNC(=O)c1ccc(-c2ccc(O)c3c2C[C@H]2C[C@H]4[C@H](N(C)C)C(O)=C(C(N)=O)C(=O)[C@@]4(O)C(O)=C2C3=O)o1 [DF]	16 µg/mL (≈ 27.5 µM)	0.0625 µg/mL (≈ 0.107 µM)	0.06 µg/mL (≈ 0.103 µM)	> 20 µM	> 20 µM	64 µg/mL (≈ 110 µM)	32 µg/mL (≈ 55 µM)	16 µg/mL (≈ 27.5 µM)	64 µg/mL (≈ 110 µM)	>200 µM	>200 µM
CN(C)[C@@H]1C(O)=C(C(N)=O)C(=O)[C@@]2(O)C(O)=C3C(=O)c4c(O)ccc(-c5cccc(CCCN)c5)c4C[C@H]3C[C@@H]12 [DG]	64 µg/mL (≈ 117 µM)	0.5 µg/mL (≈ 0.913 µM)	0.125 µg/mL (≈ 0.228 µM)	> 20 µM	> 20 µM	32 µg/mL (≈ 58.4 µM)	32 µg/mL (≈ 58.4 µM)	32 µg/mL (≈ 58.4 µM)	64 µg/mL (≈ 117 µM)	64.8 µM	>200 µM
CN(C)CCCNC(=O)c1ccc(-c2ccc(O)c3c2C[C@H]2C[C@H]4[C@H](N(C)C)C(O)=C(C(N)=O)C(=O)[C@@]4(O)C(O)=C2C3=O)o1 [DH]	64 µg/mL (≈ 105 µM)	4 µg/mL (≈ 6.57 µM)	2 µg/mL (≈ 3.29 µM)	> 200 µM	> 200 µM	64 µg/mL (≈ 105 µM)	64 µg/mL (≈ 105 µM)	64 µg/mL (≈ 105 µM)	64 µg/mL (≈ 105 µM)	>200 µM	>200 µM
CN(C)[C@@H]1C(O)=C(C(N)=O)C(=O)[C@@]2(O)C(O)=C3C(=O)c4c(O)ccc(-c5cccc(CCCN6CCCCC6)c5)c4C[C@H]3C[C@@H]12 [DI]	2 µg/mL (≈ 3.25 µM)	0.0625 µg/mL (≈ 0.102 µM)	0.06 µg/mL (≈ 0.0974 µM)	59.4 µM	54.1 µM	2 µg/mL (≈ 3.25 µM)	4 µg/mL (≈ 6.5 µM)	1 µg/mL (≈ 1.62 µM)	64 µg/mL (≈ 104 µM)	45.65 µM	>200 µM
